# Data reported in patent US20250304623A1, “PEPTIDES FOR INTRACELLULAR DELIVERY” (UNIVERSIDADE DE SANTIAGO DE COMPOSTELA, priority 2022, published 2025).
# Starred links: 1 amine or outer side, 2 acyl side, 3 side chain; linkers in the order of their positions; H or OH if unused. Residues, ends and D or L forms follow the SMILES beside them. Groups on a side chain read outwards from the residue. *: point of attachment. Glutaryl = O=C(CCCC(=O)[*:2])[*:1]; NHNH2 = NN*
# What was measured:
# Format in all cases: cell-based
# [1] = system: HepG2 cells expressing EGFP; experiment: Cas9-RNP delivery against EGFP (gene editing, plate reader), HepG2
# Protocol: (§1) To generate an EGFP expressing HeLa cell line, HeLa cells were transfected with EGFP pDNA (pEGFP-C1, Clontech) and stable transfectants were selected with 400 μg/mL of G-418 (Millipore). Green clones were selected by epifluorescence microscopy and tested for EGFP expression stability through several passages. […] All other EGFP-expressing cell lines were obtained in a similar way from parent non-EGFP-expressing cell lines.
# Cells expressing EGFP were seeded in a 96 well plate the day before the experiment at a concentration of 50,000 cell/mL (100 μL/w) in DMEM+10% FBS+1% Gln-Abt. For robotic library screening, the delivery of Cas9-RNP against EGFP (RNP designed to knock-out the gene encoding for the enhanced green fluorescent protein (EGFP)) was performed. For RNP assembly, 9.2 μL of crRNA and 9.2 μL of tracrRNA were mixed in 211.6 μL of Nuclease-Free Duplex Buffer (IDT), incubated for 5 min at 95° C. and slowly cooled at rt (see I. Lostalé-Seijo, et al. Peptide/Cas9 nanostructures for ribonucleoprotein cell membrane transport and gene edition, Chem. Sci., 2017). Cas9 protein was dissolved in DMEM at a final concentration of 4 μM and equal volumes of the RNA complex and Cas9 were mixed and incubated for 5 min at rt. 75 μL of the corresponding amphiphile concentrations were added to 5 μL of RNP at 2 μM. The mixture was shaken for 30 min at room temperature before the addition to the cells. The cell medium was aspirated, and cells were washed twice with PBS. Cells were covered with 30 μL of DMEM and 20 μL of the RNP/amphiphile complexes were added to the cells (final peptide concentrations=2.5, 5 and 10 μM; final Cas9-RNP concentration=50 nM) and incubated for 4 h. After the incubation, the medium was replaced by 100 μL of fresh DMEM supplemented with 10% FBS. The total EGFP fluorescence was quantified after 72 h in a plate reader (FIG. 2, Table 1 (right) and Table 6). All experiments were done in triplicate. […]
# Tables 26-31 show the mean (triplicates) percentage of gene editing, accounted by GFP fluorescence intensity decrease (% of reduction), measured after the transfection of Cas9-RNP by different amphiphiles at different concentrations in a variety of cell lines. Background values, accounted by untreated control cells, were subtracted for processing.
# Hela cells = experiment: EGFP mRNA delivery, robotic library screening, HeLa
# Protocol: Cells were seeded in a 96 well plate the day before the experiment at a concentration of 50,000 cell/mL (100 μL/w) in DMEM+10% FBS+1% Gln-Abt. For robotic library screening, the delivery of EGFP-mRNA (from TriLink, fully substituted with 5-methoxyuridine, capped and polyadenylated; TriLink, CleanCap® EGFP mRNA (5moU), ref. L-7201) in six different cell lines was performed. Amphiphilic molecule stock solutions were prepared in DMSO as described above and diluted in DMEM to afford a range of concentrations. The solutions of EGFP-mRNA/amphiphilic molecule complexes were freshly prepared prior to the transfection experiments. 35 μL of the corresponding amphiphile were added to 10 μL of a solution of EGFP-mRNA at 10 ng/μL in DMEM. The mixture was shaken for 30 min at room temperature before the addition to the cells. The cell medium was aspirated, and cells were washed with PBS twice. Cells were covered with 39 μL of DMEM and 11 μL of the complex's solution were added to the cells and incubated for 4 h (final concentration of peptide=2.5, 5 and 10 μM; final concentration of EGFP-mRNA=25 ng/well). After the incubation, the medium was replaced by 100 μL of fresh DMEM supplemented with 10% FBS. The total EGFP fluorescence was quantified after 72 h in a well plate reader. Amphiphile transfection efficiency was compared and normalized to Lipofectamine® MessengerMax efficiency (value of 1 in Tables 1-5 and 7; double underlined numbers). All experiments were done in triplicate.
# (§2) Tables 1-7: RLuc (pDNA) or EGFP (mRNA) expression levels were normalized to Lipofectamine reagents (value=1) and expressed as fold-times signal increase. In the case of siRNA, the siRNA treated cells fluorescence was compared with siMOCK control fluorescence, while Cas9-RNP mediated knockout was measured against the fluorescence of untreated cells. In both siRNA and Cas9-RNP, values are expressed as % fluorescence reduction. Amphiphile concentration was 5 μM in all cases. All experiments were performed in triplicate.
# Tables 14-19 show the mean (triplicates) fluorescence intensity measured after the transfection of EGFP mRNA by different amphiphiles at different concentrations in a variety of cell lines. Background fluorescence values, accounted by untreated control cells, were subtracted for processing.
# [2] = system: ARPE19 cells expressing EGFP; experiment: EGFP-targeting siRNA delivery (GFP silencing vs siMOCK), ARPE19
# Protocol: as §1
# Cells expressing EGFP were seeded in a 96 well plate the day before the experiment at a concentration of 50,000 cell/mL (100 μL/w) in DMEM+10% FBS+1% Gln-Abt. For robotic library screening, the delivery of an EGFP-targeting siRNA (EGFP: enhanced green fluorescent protein, Ambion® Silencer® GFP Positive Control siRNA (siGFP) (AM4626)) in six different cell lines expressing EGFP was performed. […] The mixture was shaken for 30 min at room temperature (rt) before the addition to the cells. The cell medium was aspirated, and cells were washed twice with PBS. Finally, 50 μL of the solution of siRNA/amphiphile complexes were added to the cells and incubated for 4 h. After transfection, the medium was replaced by 100 μL of fresh DMEM supplemented with 10% FBS. The fluorescence knockdown was quantified after 72 h in a plate reader, by comparison with cells transfected with a non-targeting siRNA control (siMOCK, Silencer™ Negative Control No. 1 siRNA (siMOCK) (AM4611)). EGFP knockdown was compared with Lipofectamine® RNAiMAX silencing efficiency (30-60% depending on cell line, defined with a numeric value in the below tables). All experiments were done in triplicate.
# as §2
# Tables 20-25 show the mean (triplicates) percentage of GFP-silencing, accounted by fluorescence intensity decrease relative to a non-targeting siRNA (siMOCK) control, measured after the transfection of siRNA by different amphiphiles at different concentrations in a variety of cell lines. Background values, accounted by untreated control cells, were subtracted for processing.
Compound,"percentage of gene editing, GFP fluorescence intensity decrease (% of reduction) ([1]; Dodecanal, 10 μM) [%]","percentage of gene editing, GFP fluorescence intensity decrease (% of reduction) ([1]; Dodecanal, 15 μM) [%]","percentage of gene editing, GFP fluorescence intensity decrease (% of reduction) ([1]; Myristoleyl, 5 μM) [%]","percentage of gene editing, GFP fluorescence intensity decrease (% of reduction) ([1]; Myristoleyl, 10 μM) [%]","percentage of gene editing, GFP fluorescence intensity decrease (% of reduction) ([1]; Oleyl, 10 μM) [%]","percentage of gene editing, GFP fluorescence intensity decrease (% of reduction) ([1]; Oleyl, 15 μM) [%]","percentage of gene editing, GFP fluorescence intensity decrease (% of reduction) ([1]; Palmitoleyl, 5 μM) [%]","percentage of gene editing, GFP fluorescence intensity decrease (% of reduction) ([1]; Palmitoleyl, 10 μM) [%]","percentage of gene editing, GFP fluorescence intensity decrease (% of reduction) ([1]; Palmitoleyl, 15 μM) [%]","mean fluorescence intensity (EGFP mRNA) (Hela cells; HeLa, Myristoleyl, 2.5 μM)","mean fluorescence intensity (EGFP mRNA) (Hela cells; HeLa, Petroselinyl, 2.5 μM)","mean fluorescence intensity (EGFP mRNA) (Hela cells; HeLa, Petroselinyl, 10 μM)","mean fluorescence intensity (EGFP mRNA) (Hela cells; Hela, Petroselinyl, 5 μM)","percentage of GFP-silencing relative to siMOCK ([2]; Dodecanal, 5 μM) [%]","percentage of GFP-silencing relative to siMOCK ([2]; Myristoleyl, 10 μM) [%]","percentage of GFP-silencing relative to siMOCK ([2]; Oleyl, 10 μM) [%]","percentage of GFP-silencing relative to siMOCK ([2]; Oleyl, 15 μM) [%]","percentage of GFP-silencing relative to siMOCK ([2]; Palmitoleyl, 10 μM) [%]","percentage of GFP-silencing relative to siMOCK ([2]; Palmitoleyl, 15 μM) [%]","percentage of GFP-silencing relative to siMOCK ([2]; Petroselinyl, 5 μM) [%]",other results
"CC(=O)N[C@@H](CCCNC(=N)N)C(=O)N[C@@H](CCCCNC(=O)CCCC(=O)NN)C(=O)N[C@@H](Cc1c[nH]cn1)C(=O)N[C@@H](CCCNC(=N)N)C(=O)N[C@@H](CCCCNC(=O)CCCC(=O)NN)C(=O)N[C@@H](CCCCNC(=O)CCCC(=O)NN)C(=O)N[C@@H](Cc1c[nH]cn1)C(N)=O [7.3(L-H), Ac-RK*HRK*K*H-NH2] (Ac-RK([Glutaryl-NHNH2])HRK([Glutaryl-NHNH2])K([Glutaryl-NHNH2])H-NH2)",−28,−28,−16,−25,−13,−12,−23,−12,−25,30978,15046,2234,28395,10,45,47,46,65,40,5,"percentage of gene editing, GFP fluorescence intensity decrease (% of reduction) ([1]; Myristoleyl, 15 μM): −19%; percentage of gene editing, GFP fluorescence intensity decrease (% of reduction) ([1]; Oleyl, 5 μM): −17%; percentage of gene editing, GFP fluorescence intensity decrease (% of reduction) ([1]; Petroselinyl, 10 μM): −20%; mean fluorescence intensity (EGFP mRNA) (Hela cells; HeLa, Oleyl, 2.5 μM): 13495; mean fluorescence intensity (EGFP mRNA) (Hela cells; HeLa, Oleyl, 5 μM): 16633; mean fluorescence intensity (EGFP mRNA) (Hela cells; HeLa, Palmitoleyl, 2.5 μM): 46778; mRNA delivery relative to Lipofectamine MessengerMAX (Hela cells; HeLa, myristoleyl, palmitoleyl or petroselinyl aldehydes): between two and three times better; mean fluorescence intensity (EGFP mRNA) (Hela cells; Hela, Myristoleyl, 5 μM): 3346; mean fluorescence intensity (EGFP mRNA) (Hela cells; Hela, Palmitoleyl, 5 μM): 21109; mean fluorescence intensity (EGFP mRNA) (Hela cells; Hela, Palmitoleyl, 10 μM): 1577; percentage of GFP-silencing relative to siMOCK ([2]; Myristoleyl, 5 μM): 45%; percentage of GFP-silencing relative to siMOCK ([2]; Oleyl, 5 μM): 15%; percentage of GFP-silencing relative to siMOCK ([2]; Palmitoleyl, 5 μM): 49%"
"Ac-RHLK*RHK*RRLK*RH-NH2 (Ac-RHLKRHKRRLKRH-NH2; not fully specified (residues 4, 7, 11); printed as Ac-RHLK*RHK*RRLK*RH-NH2; also: linker on K* not given here) [13(3His)]",−34,,,−1,,,−28,−24,−15,621,640,178,208,16,42,43,41,49,25,13,"percentage of gene editing, GFP fluorescence intensity decrease (% of reduction) ([1]; Dodecanal, 5 μM): −33%; percentage of gene editing, GFP fluorescence intensity decrease (% of reduction) ([1]; Petroselinyl, 5 μM): −16%; percentage of GFP-silencing relative to siMOCK ([2]; Dodecanal, 15 μM): 22%; percentage of GFP-silencing relative to siMOCK ([2]; Myristoleyl, 15 μM): 30%; percentage of GFP-silencing relative to siMOCK ([2]; Petroselinyl, 10 μM): 56%; percentage of GFP-silencing relative to siMOCK ([2]; Petroselinyl, 15 μM): 30%"
"Ac-RHLK*RLK*RRLK*RL-NH2 (Ac-RHLKRLKRRLKRL-NH2; not fully specified (residues 4, 7, 11); printed as Ac-RHLK*RLK*RRLK*RL-NH2; also: linker on K* not given here) [13(Arg-His)]",−10,14,10,33,−4,15,−8,26,7,,360,−15,135,60,0,29,31,−6,7,42,"percentage of gene editing, GFP fluorescence intensity decrease (% of reduction) ([1]; Dodecanal, 5 μM): −31%; percentage of gene editing, GFP fluorescence intensity decrease (% of reduction) ([1]; Petroselinyl, 5 μM): −27%; mean fluorescence intensity (EGFP mRNA) (Hela cells; HeLa, Palmitoleyl, 2.5 μM): 578; percentage of GFP-silencing relative to siMOCK ([2]; Dodecanal, 10 μM): 54%; percentage of GFP-silencing relative to siMOCK ([2]; Dodecanal, 15 μM): 34%; percentage of GFP-silencing relative to siMOCK ([2]; Myristoleyl, 15 μM): 14%; percentage of GFP-silencing relative to siMOCK ([2]; Palmitoleyl, 5 μM): 51%; percentage of GFP-silencing relative to siMOCK ([2]; Petroselinyl, 10 μM): 24%; percentage of GFP-silencing relative to siMOCK ([2]; Petroselinyl, 15 μM): 26%"
